According to ChEMBL document CHEMBL1201862, “PubChem BioAssay data set” (2004):
Calls of active or inactive are those of the source.

Assays:
[1] = molecular target: Sphingosine 1-phosphate receptor 2 (Homo sapiens, UniProt O95136); assay: Dose Response Cell Based Assay for Agonists of the S1P2 Receptor of Purchased Analogues. [Related pubchem assays: 729, 843, 854, 736 ]; type: functional
[2] = molecular target: NADPH oxidase 1 (Homo sapiens, UniProt Q9Y5S8); type: functional, cell-based;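 note: Cell-based assay with luminescence read-out, IC50 derived from inhibitor dose-response curves; intracellular ROS from endogenous NOX1 in intact HT29 colon cancer cells; potency of inhibitors that lower the ROS luminescence signal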
Sequence of NADPH oxidase 1 (Q9Y5S8 whole entry): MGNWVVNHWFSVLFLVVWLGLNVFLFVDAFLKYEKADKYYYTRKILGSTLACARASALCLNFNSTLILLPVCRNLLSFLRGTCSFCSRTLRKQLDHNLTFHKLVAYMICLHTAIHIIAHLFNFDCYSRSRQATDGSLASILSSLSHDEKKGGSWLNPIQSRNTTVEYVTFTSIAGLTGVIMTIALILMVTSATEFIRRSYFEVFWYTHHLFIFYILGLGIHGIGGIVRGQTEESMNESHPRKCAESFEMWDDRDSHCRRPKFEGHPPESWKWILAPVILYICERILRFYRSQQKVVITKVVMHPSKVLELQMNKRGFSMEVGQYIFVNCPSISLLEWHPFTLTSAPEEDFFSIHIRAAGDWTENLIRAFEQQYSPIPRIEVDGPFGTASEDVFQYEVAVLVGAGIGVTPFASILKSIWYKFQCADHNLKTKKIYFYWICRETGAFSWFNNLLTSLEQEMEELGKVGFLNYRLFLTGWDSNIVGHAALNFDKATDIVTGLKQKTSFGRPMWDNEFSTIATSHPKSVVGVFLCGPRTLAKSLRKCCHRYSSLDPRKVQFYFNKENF

[3] = molecular target: T1, Bcl-2-related protein A1 (Mus musculus, UniProt Q07440); assay: Bfl-1 inhibitors blocking BH3 peptide binding, confirmation, biochemical, TR-FRET, mouse Bfl-1 (AID 621);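 note: TR-FRET binding of GST-Bfl-1 to FITC-labelled Bid peptide via terbium antibody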
T1 sequence (Q07440 whole entry): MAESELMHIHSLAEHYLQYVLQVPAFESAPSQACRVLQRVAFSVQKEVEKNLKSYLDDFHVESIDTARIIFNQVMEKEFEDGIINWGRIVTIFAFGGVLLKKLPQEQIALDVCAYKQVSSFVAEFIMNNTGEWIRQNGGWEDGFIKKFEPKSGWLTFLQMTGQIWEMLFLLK

[4] = molecular target: T1, Bcl-2-related protein A1; assay: Bfl-1 inhibitors, primary screen, biochemical, fluorescence polarization, FITC-Bid, mouse (AID 432)
[5] = molecular target: T2, SUMO-activating enzyme (Homo sapiens, UniProt Q9UBT2); assay: inhibitors of in vitro SUMOylation cascade, primary screen, biochemical, HTRF, uHTS (AID 2006); type: protein-complex assay
T2 sequence (Q9UBE0 whole entry): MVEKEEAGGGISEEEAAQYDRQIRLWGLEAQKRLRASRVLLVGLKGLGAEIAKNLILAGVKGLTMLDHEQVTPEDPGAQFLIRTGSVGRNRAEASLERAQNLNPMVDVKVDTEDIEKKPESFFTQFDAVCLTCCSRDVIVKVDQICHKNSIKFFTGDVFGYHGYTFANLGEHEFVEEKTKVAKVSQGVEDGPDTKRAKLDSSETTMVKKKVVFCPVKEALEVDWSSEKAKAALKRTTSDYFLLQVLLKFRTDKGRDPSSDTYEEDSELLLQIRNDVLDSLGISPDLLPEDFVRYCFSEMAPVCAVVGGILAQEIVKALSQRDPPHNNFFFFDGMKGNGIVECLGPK
T2 sequence (Q9UBT2 whole entry): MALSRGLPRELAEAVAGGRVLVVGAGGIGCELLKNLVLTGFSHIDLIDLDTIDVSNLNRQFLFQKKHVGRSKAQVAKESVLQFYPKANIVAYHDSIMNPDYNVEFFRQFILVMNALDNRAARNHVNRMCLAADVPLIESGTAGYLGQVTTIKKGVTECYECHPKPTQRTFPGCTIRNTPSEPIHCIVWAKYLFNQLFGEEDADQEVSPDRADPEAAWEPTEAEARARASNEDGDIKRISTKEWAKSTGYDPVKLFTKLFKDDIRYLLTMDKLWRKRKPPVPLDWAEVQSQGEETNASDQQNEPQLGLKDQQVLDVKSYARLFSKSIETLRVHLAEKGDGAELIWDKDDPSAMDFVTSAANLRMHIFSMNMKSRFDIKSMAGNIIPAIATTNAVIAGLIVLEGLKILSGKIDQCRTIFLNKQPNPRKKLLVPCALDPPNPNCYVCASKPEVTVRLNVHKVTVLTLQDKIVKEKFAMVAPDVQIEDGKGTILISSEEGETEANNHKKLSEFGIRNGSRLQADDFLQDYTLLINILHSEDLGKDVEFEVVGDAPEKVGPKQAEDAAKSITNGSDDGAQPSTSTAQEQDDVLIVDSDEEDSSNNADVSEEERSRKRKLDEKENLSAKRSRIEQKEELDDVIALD

[6] = molecular target: Ras and Rab interactor 1/Tyrosine-protein kinase ABL1 (Homo sapiens, UniProt P00519+Q13671); type: functional;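 note: biochemical TR-FRET dose-response test measuring inhibition of binding between Rin1 and Abl proteins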
[7] = molecular target: T2, SUMO-activating enzyme; assay: SUMOylation inhibitor hit validation, confirmation, SUMOylation inhibitor project, biochemical, AlphaScreen (AID 2018); type: functional
[8] = molecular target: T3, Sentrin-specific protease 8 (Homo sapiens, UniProt Q96LD8); type: functional
T3 sequence (Q96LD8 whole entry): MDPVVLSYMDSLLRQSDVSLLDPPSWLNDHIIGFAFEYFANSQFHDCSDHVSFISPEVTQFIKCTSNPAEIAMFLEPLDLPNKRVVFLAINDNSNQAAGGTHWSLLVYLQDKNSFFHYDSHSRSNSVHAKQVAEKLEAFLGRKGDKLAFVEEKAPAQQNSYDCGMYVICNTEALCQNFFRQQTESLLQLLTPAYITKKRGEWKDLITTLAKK

[9] = molecular target: T4, Histone-lysine N-methyltransferase NSD2 (Homo sapiens, UniProt O96028); type: biochemical
T4 sequence (O96028 whole entry): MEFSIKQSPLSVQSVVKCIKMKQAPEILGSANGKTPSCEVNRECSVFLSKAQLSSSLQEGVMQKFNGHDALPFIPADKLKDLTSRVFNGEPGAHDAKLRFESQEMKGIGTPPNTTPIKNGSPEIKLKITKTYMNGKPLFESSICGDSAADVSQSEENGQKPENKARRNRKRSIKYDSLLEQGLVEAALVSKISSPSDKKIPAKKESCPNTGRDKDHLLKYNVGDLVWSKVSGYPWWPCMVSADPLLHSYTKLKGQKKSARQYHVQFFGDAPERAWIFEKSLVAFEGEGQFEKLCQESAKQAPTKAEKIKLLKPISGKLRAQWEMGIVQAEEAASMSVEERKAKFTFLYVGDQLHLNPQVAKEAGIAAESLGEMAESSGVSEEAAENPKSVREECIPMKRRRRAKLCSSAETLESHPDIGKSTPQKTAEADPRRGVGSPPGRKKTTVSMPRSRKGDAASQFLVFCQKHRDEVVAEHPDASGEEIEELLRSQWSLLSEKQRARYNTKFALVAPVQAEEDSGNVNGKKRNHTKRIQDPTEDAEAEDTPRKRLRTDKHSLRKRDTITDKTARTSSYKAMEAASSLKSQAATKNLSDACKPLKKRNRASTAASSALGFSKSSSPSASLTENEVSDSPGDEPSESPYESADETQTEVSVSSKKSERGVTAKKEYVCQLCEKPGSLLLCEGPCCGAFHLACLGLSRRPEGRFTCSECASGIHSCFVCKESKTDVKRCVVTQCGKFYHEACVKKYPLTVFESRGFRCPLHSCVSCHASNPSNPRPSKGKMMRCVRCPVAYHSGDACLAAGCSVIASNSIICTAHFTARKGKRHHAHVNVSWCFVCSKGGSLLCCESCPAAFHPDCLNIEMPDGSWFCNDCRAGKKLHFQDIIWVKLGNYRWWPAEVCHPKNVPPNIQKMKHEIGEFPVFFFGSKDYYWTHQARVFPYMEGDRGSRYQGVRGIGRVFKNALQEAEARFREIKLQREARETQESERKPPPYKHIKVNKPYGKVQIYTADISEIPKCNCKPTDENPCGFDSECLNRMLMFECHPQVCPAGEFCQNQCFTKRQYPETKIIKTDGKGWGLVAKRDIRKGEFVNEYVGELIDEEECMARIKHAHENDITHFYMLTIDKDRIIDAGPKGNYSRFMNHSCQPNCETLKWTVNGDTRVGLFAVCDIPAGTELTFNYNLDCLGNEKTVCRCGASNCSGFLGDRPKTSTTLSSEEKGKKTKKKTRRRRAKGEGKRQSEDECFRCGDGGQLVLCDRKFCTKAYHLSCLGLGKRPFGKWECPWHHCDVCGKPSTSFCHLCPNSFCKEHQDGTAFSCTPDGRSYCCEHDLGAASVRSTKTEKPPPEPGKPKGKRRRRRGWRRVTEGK

[10] = molecular target: T5, Serine/threonine-protein phosphatase (Homo sapiens, UniProt Q9BPW0); assay: PP5 phosphatase inhibitors, dose response, biochemical, fluorescence (AID 2395)
T5 sequence (Q9BPW0 whole entry): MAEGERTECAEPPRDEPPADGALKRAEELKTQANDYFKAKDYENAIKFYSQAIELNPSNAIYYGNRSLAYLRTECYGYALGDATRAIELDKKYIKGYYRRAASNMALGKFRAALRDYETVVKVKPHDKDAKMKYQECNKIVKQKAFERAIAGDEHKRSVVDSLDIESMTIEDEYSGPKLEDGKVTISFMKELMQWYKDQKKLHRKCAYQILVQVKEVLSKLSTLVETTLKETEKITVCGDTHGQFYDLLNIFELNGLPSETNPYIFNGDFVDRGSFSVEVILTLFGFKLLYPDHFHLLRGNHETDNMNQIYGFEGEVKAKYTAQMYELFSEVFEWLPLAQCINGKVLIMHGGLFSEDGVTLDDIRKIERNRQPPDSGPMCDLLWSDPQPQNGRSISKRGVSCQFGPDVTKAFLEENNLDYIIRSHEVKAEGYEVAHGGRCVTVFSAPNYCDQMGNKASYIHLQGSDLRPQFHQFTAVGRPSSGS

[11] = molecular target: Serine/threonine-protein phosphatase PP1-alpha catalytic subunit (Homo sapiens, UniProt P62136); assay: PP1 phosphatase inhibitors, dose response, biochemical, fluorescence (AID 2394)
Sequence of Serine/threonine-protein phosphatase PP1-alpha catalytic subunit (P62136 whole entry): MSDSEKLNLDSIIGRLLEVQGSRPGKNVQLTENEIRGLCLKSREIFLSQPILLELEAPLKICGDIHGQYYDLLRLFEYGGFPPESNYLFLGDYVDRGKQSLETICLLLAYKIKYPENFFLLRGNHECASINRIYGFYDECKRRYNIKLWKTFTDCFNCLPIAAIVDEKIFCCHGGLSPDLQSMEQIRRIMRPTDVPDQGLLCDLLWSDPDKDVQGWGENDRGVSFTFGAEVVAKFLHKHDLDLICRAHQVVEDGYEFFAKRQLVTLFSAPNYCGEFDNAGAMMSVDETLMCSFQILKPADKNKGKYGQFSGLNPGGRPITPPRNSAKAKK

[12] = molecular target: Tyrosyl-DNA phosphodiesterase 2 (Homo sapiens, UniProt O95551); assay: human TDP2 enzyme inhibitors, dose response, biochemical, epi absorbance, IC50 (AID 743297)
Sequence of Tyrosyl-DNA phosphodiesterase 2 (O95551 whole entry): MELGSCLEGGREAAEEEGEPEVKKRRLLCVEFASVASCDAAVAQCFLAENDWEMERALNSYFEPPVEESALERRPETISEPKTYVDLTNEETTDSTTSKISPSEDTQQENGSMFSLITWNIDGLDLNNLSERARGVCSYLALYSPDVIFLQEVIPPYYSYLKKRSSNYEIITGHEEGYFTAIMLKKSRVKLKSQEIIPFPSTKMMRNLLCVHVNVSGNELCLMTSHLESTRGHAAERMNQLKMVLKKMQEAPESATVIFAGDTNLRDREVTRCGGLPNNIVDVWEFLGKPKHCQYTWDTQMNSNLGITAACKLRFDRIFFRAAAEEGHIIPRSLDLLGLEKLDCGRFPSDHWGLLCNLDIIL

[13] = molecular target: T6, Apoptotic protease-activating factor 1 (Homo sapiens, UniProt O14727); type: functional
T6 sequence (O14727 whole entry): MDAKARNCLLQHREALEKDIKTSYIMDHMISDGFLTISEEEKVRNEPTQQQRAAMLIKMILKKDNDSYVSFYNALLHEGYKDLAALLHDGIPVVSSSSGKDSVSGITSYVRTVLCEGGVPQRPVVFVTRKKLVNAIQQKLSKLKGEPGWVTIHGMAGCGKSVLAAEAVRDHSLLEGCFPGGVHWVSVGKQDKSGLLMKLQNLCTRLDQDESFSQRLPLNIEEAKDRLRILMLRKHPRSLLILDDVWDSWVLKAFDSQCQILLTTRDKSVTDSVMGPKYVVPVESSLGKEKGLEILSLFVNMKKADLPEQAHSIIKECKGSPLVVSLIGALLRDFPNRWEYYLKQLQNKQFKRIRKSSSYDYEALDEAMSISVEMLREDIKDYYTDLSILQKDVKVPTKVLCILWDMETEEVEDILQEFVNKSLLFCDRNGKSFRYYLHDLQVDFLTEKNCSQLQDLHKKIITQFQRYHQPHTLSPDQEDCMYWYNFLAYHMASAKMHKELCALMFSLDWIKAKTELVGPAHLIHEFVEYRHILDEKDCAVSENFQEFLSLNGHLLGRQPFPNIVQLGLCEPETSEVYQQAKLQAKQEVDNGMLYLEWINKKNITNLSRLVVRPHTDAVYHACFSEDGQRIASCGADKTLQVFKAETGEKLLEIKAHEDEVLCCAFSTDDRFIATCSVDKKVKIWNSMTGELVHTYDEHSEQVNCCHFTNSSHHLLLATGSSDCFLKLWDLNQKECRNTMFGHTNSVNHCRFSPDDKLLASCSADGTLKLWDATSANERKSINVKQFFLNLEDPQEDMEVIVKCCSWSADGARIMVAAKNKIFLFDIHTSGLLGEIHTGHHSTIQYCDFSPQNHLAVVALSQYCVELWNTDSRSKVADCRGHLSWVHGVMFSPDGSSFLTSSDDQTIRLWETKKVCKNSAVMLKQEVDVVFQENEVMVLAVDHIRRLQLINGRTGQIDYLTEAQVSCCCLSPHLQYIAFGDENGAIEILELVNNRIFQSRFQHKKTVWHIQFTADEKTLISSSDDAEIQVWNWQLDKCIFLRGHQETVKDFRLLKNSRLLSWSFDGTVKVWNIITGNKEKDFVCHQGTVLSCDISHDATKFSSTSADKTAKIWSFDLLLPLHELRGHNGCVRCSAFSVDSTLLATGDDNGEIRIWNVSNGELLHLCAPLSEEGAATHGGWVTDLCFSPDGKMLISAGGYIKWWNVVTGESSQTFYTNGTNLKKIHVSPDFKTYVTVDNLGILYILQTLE

[14] = molecular target: T3, Sentrin-specific protease 8; type: functional; remark: listed apart in the source
[15] = molecular target: Mothers against decapentaplegic homolog 3 (Homo sapiens, UniProt P84022); assay: SMAD3 transcription factor inhibitors, dose response (AID 715); type: functional
Sequence of Mothers against decapentaplegic homolog 3 (P84022 whole entry): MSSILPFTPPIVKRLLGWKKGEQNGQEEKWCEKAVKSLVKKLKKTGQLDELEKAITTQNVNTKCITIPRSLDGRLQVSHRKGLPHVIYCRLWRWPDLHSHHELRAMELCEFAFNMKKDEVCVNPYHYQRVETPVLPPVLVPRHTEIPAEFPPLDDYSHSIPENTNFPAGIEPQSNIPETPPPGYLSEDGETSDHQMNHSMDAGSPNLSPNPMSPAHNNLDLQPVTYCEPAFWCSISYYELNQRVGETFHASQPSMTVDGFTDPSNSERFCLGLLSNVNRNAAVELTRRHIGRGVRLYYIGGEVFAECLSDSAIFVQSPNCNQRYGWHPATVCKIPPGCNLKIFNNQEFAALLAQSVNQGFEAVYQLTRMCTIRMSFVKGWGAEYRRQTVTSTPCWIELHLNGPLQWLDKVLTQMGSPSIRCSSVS

[16] = Luminescence Cell-Based Dose Response HTS to Identify Activators of Luciferase Translation or Activity in H4 […] Cells. [Related pubchem assays: 1829 (Project Summary), 1814 (Primary HTS)]; type: functional
[17] = Luminescence Cell-Based Dose Response to Identify Activators of 5'UTR Stem-Loop Driven Prion Protein mRNA Translation in H4-C Neuroglioblastoma Cells. [Related pubchem assays: 1829 (Project Summary), 1814 (Primary HTS)]; type: functional
[18] = tested on: H4; assay: Luminescence Cell-Based Dose Response HTS to Identify Activators of 5'UTR Stem-Loop Driven Prion Protein mRNA Translation in H4 Neuroglioblastoma Cells. [Related pubchem assays: 1829 (Project Summary), 1814 (Primary HTS)]; type: functional; conditions: Homo sapiens
[19] = Luminescence Cell-Based Dose Response to Identify Activators of Luciferase Translation or Activity in H4-C Neuroglioblastoma Cells. [Related pubchem assays: 1829 (Project Summary), 1814 (Primary HTS)]; type: functional
[20] = Luminescence Cell-Based Dose Confirmation to Identify Activators of 5'UTR Stem-Loop Driven Alpha-Synuclein mRNA Translation in H4 Neuroglioblastoma Cells. [Related pubchem assays: 1829 (Project Summary), 1814 (Primary HTS)]; type: functional
[21] = Luminescence Cell-Based Dose Confirmation HTS to Identify Activators of 5'UTR Stem-Loop Driven Alpha-Synuclein mRNA Translation in H4 Neuroglioblastoma Cells. [Related pubchem assays: 1829 (Project Summary), 1814 (Primary HTS)]; type: functional
[22] = molecular target: Cytochrome P450 2C9 (Homo sapiens, UniProt P11712)
Sequence of Cytochrome P450 2C9 (P11712 whole entry): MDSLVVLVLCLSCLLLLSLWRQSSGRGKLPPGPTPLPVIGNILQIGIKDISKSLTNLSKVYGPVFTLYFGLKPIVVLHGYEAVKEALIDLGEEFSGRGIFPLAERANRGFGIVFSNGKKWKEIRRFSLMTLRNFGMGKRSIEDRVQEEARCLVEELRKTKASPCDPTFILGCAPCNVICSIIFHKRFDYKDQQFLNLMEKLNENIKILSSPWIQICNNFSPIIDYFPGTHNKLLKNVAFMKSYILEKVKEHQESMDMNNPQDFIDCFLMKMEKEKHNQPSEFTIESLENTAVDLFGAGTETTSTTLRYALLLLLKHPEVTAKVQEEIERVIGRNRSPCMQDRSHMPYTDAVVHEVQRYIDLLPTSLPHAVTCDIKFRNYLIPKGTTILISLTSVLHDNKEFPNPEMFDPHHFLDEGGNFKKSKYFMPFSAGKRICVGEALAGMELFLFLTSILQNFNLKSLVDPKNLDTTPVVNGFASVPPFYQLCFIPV

[23] = molecular target: Cytochrome P450 2D6 (Homo sapiens, UniProt P10635);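 note: CYP2D6 member of a cytochrome P450 panel assay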
Sequence of Cytochrome P450 2D6 (P10635 whole entry): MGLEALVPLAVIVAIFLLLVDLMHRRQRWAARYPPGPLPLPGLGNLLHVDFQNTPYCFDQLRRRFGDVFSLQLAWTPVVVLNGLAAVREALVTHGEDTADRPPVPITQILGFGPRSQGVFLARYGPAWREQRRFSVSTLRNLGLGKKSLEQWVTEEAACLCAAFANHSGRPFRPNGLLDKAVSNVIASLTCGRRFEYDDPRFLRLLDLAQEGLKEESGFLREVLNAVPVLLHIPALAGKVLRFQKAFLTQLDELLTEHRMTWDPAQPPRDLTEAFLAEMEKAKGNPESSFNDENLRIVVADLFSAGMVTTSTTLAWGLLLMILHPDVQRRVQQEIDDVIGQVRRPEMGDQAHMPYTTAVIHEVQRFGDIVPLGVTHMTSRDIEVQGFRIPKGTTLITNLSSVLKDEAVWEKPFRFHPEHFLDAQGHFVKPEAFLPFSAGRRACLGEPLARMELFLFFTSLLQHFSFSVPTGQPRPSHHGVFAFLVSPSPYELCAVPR

[24] = molecular target: Epstein-Barr nuclear antigen 1 (Epstein-Barr virus (strain B95-8) (HHV-4) (Human herpesvirus 4), UniProt P03211); assay: EBNA-1 inhibitors, dose response, biochemical, fluorescence polarization, 1536-well (AID 2381); set-up: species or system human gammaherpesvirus 4;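 note: fluorescence polarization of a Cy5 DNA probe bound by EBNA-1 protein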
Sequence of Epstein-Barr nuclear antigen 1 (P03211 whole entry): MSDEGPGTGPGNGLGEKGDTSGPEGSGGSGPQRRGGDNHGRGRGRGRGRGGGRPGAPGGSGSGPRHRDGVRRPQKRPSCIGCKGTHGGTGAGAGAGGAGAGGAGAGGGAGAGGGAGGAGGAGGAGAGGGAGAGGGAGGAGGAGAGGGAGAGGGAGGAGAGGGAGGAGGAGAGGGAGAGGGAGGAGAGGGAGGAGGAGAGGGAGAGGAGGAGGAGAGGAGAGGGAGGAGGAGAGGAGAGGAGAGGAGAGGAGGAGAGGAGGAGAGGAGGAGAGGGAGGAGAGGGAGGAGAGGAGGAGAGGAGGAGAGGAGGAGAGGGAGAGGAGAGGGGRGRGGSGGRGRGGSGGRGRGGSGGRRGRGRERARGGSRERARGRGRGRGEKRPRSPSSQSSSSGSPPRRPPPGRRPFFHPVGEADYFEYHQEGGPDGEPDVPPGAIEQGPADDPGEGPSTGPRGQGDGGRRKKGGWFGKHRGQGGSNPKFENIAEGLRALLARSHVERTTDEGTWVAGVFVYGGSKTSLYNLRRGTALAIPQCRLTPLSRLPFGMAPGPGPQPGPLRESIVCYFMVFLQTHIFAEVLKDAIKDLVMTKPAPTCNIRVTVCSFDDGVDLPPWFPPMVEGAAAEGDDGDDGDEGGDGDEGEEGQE

[25] = molecular target: Lytic switch protein BZLF1 (Epstein-Barr virus (strain B95-8) (HHV-4) (Human herpesvirus 4), UniProt P03206); assay: EBV ZTA inhibitors, dose response, counter-screen for EBNA-1 inhibitor project, biochemical, fluorescence polarization, Epstein-Barr virus, 1536-well (AID 2377); set-up: species or system human gammaherpesvirus 4;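 note: fluorescence polarization of Cy5-labelled ZRE DNA probe bound by purified Zta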
Sequence of Lytic switch protein BZLF1 (P03206 whole entry): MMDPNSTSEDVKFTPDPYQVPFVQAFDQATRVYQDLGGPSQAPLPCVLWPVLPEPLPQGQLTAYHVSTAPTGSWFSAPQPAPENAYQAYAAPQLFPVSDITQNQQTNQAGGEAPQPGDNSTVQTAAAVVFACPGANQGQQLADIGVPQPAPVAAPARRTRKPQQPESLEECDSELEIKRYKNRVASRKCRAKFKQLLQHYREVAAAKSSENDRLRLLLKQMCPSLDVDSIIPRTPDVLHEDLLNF

Sequence of Sphingosine 1-phosphate receptor 2 (O95136 whole entry): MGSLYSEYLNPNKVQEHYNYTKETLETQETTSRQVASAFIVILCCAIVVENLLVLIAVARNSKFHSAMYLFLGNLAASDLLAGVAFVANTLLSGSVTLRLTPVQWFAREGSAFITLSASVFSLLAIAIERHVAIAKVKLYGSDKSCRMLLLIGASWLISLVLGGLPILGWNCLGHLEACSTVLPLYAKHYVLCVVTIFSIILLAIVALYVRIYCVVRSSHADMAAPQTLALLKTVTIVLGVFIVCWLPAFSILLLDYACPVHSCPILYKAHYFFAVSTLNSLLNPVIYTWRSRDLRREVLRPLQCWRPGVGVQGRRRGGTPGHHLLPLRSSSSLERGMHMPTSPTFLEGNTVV

With `CC(=O)Nc1ccc(OCC(=O)c2cc(C)n(Cc3ccccc3)c2C)cc1` as the compound, how does the EC50 [1] read?
Its EC50 is > 30 µM (not active).

With `O=C(Cc1ccc([N+](=O)[O-])cc1)Nc1ccc(Oc2ccccc2)cc1` as the compound, how does the IC50 [2] read?
Its IC50 is > 17 µM (not active).

What does the source list for `CCCN1CC=C2C(C#N)=C(N)C(C#N)(C#N)C(c3cccc(OC)c3OC)C2C1` (stereo not given)?
IC50 [3]: > 100 µM (not active); IC50 [4]: > 100 µM (not active)

Which IC50 [5] does the source give for `CC(=O)C1=C(C)OC2(O)c3ccccc3C(=O)C12O` (stereo not given) here?
The IC50 was 16.6 µM (active).

What about the IC50 [6] of the same compound?
The IC50 was > 73.4 µM (inactive).

What about the IC50 [7] of the same compound?
Its IC50 is 3.09 µM (active).

What about the IC50 [8] of the same compound?
Its IC50 is 0.754 µM (active).

And the AC50 [9]?
Its AC50 is 4.82 µM (active).

And the IC50 [10]?
Its IC50 is > 2.48 µM (active).

And the IC50 [11]?
The IC50 was > 67 µM (not active).

What about the IC50 [12] of the same compound?
The IC50 was 7.52 µM (active).

What about the IC50 [13] of the same compound?
The IC50 was 8.19 µM (active).

And the IC50 [14]?
Its IC50 is 0.455 µM (active).

For `Cc1ccc(CCN2CC(C(=O)NCCCN3CCCCCC3)CC2=O)cc1` (stereo not given), which IC50 [15] is on record?
Its IC50 is 11.1 µM (active).

Which EC50 [16] does the source give for `O=c1c2ccccc2ncn1/N=C/c1ccccc1` here?
Its EC50 is < 0.1 µM (active).

And the EC50 [17]?
The EC50 was 2.06 µM (active).

And the EC50 [18]?
The EC50 was 0.525 µM (active).

What about the EC50 [19] of the same compound?
The EC50 was 1.16 µM (active).

And the EC50 [20]?
Its EC50 is 0.53 µM (active).

What about the EC50 [21] of the same compound?
Its EC50 is < 0.1 µM (active).

With `COc1ccc(/C=C/C(=O)Oc2cccc(/C=N/NC(=O)COc3c(C)cccc3C)c2)cc1` as the compound, how does the AC50 [22] read?
Its AC50 is 3.55 µM (inconclusive).

And the AC50 [23]?
The AC50 was “inconclusive”.

And the IC50 [24]?
Its IC50 is 6.28 µM (active).

And the IC50 [25]?
Its IC50 is > 111 µM (not active).
